From ChEMBL document CHEMBL3988442, “University of Dundee, Small-Polar-MMV Screening Library” (2021)
Several values for one entry are separate records, joined by “and”; a condition that tells them apart may be missing. Equal entries are not always repeated.

Tests used:
[1] = target: T1, Histidine--tRNA ligase (Trypanosoma cruzi (strain CL Brener), UniProt Q4DA54); assay: Trypanosoma cruzi histidyl tRNA synthetase (Tc-HisRS); assay type: functional
T1 sequence (Q4DA54 whole entry): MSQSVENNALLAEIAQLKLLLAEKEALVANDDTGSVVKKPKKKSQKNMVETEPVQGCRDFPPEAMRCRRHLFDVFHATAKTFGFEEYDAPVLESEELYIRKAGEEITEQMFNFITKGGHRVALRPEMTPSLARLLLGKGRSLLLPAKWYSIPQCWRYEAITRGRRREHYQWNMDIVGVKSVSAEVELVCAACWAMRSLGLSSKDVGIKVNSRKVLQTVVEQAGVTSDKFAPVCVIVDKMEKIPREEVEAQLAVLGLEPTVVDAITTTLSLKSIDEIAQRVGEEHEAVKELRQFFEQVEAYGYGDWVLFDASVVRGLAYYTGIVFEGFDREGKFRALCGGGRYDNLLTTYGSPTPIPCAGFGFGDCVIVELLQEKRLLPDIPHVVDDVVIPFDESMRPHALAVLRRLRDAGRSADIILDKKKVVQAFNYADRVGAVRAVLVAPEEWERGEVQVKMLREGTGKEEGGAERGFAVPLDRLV

[2] = target: ClpP1P2 (Mycobacterium tuberculosis (strain ATCC 25618 / H37Rv), UniProt P9WPC3+P9WPC5); assay: in vitro assay to detect presence of AMC directly proportional to the activity of ClpP1P2. GHDDI collaboration.; assay type: functional
ClpP1P2, sequence (P9WPC5 whole entry): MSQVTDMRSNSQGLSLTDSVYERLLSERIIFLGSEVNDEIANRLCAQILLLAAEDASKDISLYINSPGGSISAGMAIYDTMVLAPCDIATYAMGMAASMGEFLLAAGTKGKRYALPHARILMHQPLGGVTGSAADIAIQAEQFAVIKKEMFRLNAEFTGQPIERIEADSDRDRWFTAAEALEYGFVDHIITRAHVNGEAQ
ClpP1P2, sequence (P9WPC3 whole entry): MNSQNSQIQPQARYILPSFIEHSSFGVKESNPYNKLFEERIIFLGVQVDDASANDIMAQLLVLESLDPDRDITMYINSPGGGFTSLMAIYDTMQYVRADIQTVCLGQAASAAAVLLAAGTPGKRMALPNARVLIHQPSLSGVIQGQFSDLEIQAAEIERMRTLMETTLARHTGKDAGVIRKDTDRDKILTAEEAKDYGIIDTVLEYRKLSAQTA

[3] = target: T2, Coenzyme A biosynthesis bifunctional protein CoaBC (Mycobacterium tuberculosis (strain ATCC 25618 / H37Rv), UniProt P9WNZ1); assay: Biomol Green assay for MtCoaBC inhibitor, OD650 read; assay type: functional
T2 sequence (P9WNZ1 whole entry): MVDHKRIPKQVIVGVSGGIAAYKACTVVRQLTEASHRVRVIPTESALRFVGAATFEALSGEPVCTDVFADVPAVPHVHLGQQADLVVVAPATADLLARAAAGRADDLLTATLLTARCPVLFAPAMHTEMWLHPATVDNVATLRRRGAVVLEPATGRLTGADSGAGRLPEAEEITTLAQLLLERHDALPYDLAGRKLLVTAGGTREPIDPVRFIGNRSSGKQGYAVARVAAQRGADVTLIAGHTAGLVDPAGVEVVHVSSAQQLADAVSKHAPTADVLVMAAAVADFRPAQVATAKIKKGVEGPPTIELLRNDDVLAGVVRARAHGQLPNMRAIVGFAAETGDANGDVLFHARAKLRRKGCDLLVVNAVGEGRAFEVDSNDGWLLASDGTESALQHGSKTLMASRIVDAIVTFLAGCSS

[4] = target: T3, Histidine--tRNA ligase (Leishmania infantum, UniProt A4I591); assay: Leishmania infantum Histidine tRNA synthetase (LdHisRS); assay type: functional
T3 sequence (A4I591 whole entry): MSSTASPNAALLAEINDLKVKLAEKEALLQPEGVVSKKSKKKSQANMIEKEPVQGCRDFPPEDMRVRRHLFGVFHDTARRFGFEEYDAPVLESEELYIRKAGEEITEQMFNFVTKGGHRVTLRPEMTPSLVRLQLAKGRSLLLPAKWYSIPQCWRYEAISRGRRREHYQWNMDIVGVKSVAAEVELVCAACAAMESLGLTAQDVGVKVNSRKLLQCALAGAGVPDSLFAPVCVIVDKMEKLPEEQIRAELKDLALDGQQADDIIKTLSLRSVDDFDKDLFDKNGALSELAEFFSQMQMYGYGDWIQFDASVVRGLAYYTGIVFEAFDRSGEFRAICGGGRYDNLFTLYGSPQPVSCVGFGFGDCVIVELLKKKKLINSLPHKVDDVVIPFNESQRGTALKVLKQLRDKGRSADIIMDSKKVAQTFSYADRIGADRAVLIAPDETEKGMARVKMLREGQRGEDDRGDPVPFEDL

[5] = target: Chromo domain-containing protein 1 (Saccharomyces cerevisiae (strain ATCC 204508 / S288c) (Baker's yeast), UniProt P32657); assay: ScCHD-1 Enzyme Inhibition Assay; assay type: functional
Chromo domain-containing protein 1, sequence (P32657 whole entry, the tested form may be a part): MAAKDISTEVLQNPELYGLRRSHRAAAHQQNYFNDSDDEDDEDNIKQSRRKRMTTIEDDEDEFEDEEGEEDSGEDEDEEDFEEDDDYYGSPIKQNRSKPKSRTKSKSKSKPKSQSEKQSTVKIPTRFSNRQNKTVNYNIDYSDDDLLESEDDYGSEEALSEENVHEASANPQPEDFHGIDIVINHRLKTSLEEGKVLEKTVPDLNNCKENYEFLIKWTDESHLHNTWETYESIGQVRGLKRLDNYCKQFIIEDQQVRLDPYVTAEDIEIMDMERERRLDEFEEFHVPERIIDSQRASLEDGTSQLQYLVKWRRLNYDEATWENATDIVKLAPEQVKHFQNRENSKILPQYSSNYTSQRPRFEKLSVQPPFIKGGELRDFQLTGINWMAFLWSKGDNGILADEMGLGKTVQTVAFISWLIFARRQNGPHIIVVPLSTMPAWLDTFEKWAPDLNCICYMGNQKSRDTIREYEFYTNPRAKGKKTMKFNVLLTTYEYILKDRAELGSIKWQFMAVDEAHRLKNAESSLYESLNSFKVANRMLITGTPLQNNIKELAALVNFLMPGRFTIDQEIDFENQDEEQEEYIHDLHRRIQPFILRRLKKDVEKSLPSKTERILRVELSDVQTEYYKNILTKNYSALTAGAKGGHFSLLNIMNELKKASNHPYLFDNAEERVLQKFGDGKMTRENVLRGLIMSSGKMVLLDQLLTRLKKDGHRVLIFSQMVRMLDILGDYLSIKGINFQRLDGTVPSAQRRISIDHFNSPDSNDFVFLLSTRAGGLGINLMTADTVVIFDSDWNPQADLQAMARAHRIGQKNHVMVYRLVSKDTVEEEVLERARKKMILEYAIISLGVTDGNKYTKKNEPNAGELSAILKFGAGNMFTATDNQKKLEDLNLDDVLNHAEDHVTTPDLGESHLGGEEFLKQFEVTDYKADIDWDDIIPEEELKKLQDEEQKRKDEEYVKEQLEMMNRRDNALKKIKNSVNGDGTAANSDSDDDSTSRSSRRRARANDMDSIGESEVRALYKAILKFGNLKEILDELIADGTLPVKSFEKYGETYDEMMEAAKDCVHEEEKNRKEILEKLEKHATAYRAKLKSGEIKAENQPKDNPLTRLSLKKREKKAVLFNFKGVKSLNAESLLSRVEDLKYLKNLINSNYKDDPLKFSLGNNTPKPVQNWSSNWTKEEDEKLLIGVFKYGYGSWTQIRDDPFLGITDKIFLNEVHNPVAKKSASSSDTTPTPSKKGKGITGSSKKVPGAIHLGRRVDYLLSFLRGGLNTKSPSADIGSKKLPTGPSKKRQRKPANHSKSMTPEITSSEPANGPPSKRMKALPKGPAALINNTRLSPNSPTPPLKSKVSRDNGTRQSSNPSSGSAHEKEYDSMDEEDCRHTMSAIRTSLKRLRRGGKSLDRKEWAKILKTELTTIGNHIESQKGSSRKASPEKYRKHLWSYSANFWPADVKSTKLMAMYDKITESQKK

[6] = target: Sialic acid-binding Ig-like lectin 9 (Homo sapiens, UniProt Q9Y336); assay: Hs-Siglec9 ALPHAscreen SOP 20170721
Sialic acid-binding Ig-like lectin 9, sequence (Q9Y336 whole entry): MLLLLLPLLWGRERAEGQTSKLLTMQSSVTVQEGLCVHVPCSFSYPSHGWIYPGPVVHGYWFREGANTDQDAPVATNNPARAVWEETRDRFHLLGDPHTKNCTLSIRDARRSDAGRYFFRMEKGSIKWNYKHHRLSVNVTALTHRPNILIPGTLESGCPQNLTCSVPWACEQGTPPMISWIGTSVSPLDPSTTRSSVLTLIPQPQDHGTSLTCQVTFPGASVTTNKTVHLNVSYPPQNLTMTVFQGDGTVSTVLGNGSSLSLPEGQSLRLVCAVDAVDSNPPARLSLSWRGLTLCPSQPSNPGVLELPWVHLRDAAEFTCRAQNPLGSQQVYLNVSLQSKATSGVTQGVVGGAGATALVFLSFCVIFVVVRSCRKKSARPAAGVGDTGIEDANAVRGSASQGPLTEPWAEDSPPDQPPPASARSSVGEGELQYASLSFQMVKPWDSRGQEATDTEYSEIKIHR

[7] = microbe, parasite or virus in culture; conditions: Mycobacterium tuberculosis, 72 h, read-out: pIC50 (converted)
[8] = microbe, parasite or virus in culture; conditions: Mycobacterium tuberculosis, 96 h, read-out: pIC50 (converted)

SMILES	IC50 [1]	further results
CCN(CC)CCNC(=O)CCc1c(C)nn(-c2cccc(Cl)c2)c1C	> 100 µM	
CCN(CC)CCNC(=O)CCc1c(C)nn(-c2ccc(Cl)cc2)c1C	> 100 µM	
CCN(CC)CCNC(=O)CCc1c(C)nn(-c2ccccc2Br)c1C	> 100 µM	
CCN(CC)CCNC(=O)CCc1c(C)nn(-c2ccccc2Cl)c1C	> 100 µM	
Cc1nn(-c2ccccc2Cl)c(C)c1CCC(=O)NCCS(C)(=O)=O	> 100 µM	
Cc1ccc(N2Cc3c(CN(C)C)nn(C)c3C2)nn1	> 100 µM	
Cc1ccc(N2CCOCC3(CCCN(c4ncc(F)cn4)C3)C2)nn1 (stereo not given)	> 100 µM	
Cc1cnc(N2CCCC3(COCCN(c4ccc(C)nn4)C3)C2)nc1 (stereo not given)	> 100 µM	
Cc1ccc(N2CCCC3(COCCN(c4cnccn4)C3)C2)nn1 (stereo not given)	> 100 µM	
O=C1CC(c2ccco2)c2sc(C(=O)O)c(-c3ccccc3)c2N1 (stereo not given)		IC50 [2]: > 100 µM; IC50 [3]: > 30.2 µM; IC50 [4]: 17.3 µM and 12.6 µM; IC50 [5]: 20.8 µM and 21.6 µM; IC50 [6]: > 30.2 µM
O=C(O)c1ccc2ccc(N3CCN(CC4CC4)CC3)n2c1	38.6 µM and 57.7 µM	
Cc1ccc(N2CC3(CCN(c4nccs4)C3)C2)nn1	> 100 µM	
O=C(O)c1ccccc1-c1ccc(CN2CC(c3ccncn3)C2)o1	52.3 µM and 57.8 µM	
Cc1nccc(C2CN(Cc3ccc(-c4ccccc4C(=O)O)o3)C2)n1	> 100 µM	
Nc1nccc(C2CN(Cc3ccc(-c4ccccc4C(=O)O)o3)C2)n1	32.2 µM and 50.5 µM	IC50 [4]: 25.3 µM and 25.4 µM
Cc1ccnc(C2CN(Cc3ccc(-c4ccccc4C(=O)O)o3)C2)n1	48.1 µM and 40.7 µM	
Fc1ccc(F)c(CN2CCC(c3cnccn3)CC2)c1	> 100 µM	
Fc1cc(F)cc(CN2CCC(c3cc4ncccc4cn3)CC2)c1	> 100 µM	
O=C(O)c1cncc(Cc2ccccc2F)c1	> 100 µM	
O=C(O)c1cncc(Cc2ccc(F)cc2)c1	> 100 µM	
O=C(O)c1ccc(Cc2cccc(F)c2)nc1	> 100 µM	

SMILES	IC50 [1]	further results
O=C(O)c1cncc(Cc2cccc(F)c2)c1	> 100 µM	
Cn1cc(NC(=O)N2CCCC2c2cccnc2)ccc1=O (stereo not given)	5.39 µM and 6.42 µM	IC50 [4]: 5.84 µM and 5.74 µM
CC1CCN(c2ccc(C(=O)N3CCCC3c3nncn3C)cn2)CC1 (stereo not given)	> 100 µM	
CCCn1cc(NC(=O)c2ccc(NC(=O)NC3CC3)cc2)ccc1=O	4.75 µM and 4.19 µM	IC50 [4]: 5.84 µM and 7.08 µM
CCCn1cc(NC(=O)c2ccc(N(C)CC)cc2)ccc1=O	> 100 µM	
CCCn1cc(NC(=O)c2cccnc2O)ccc1=O	> 100 µM	
Cc1nc(CNC2CCCN(c3cccnn3)C2)no1 (stereo not given)	> 100 µM	
c1cncc(-c2noc(CNC3CCCN(c4cccnn4)C3)n2)c1 (stereo not given)	> 100 µM	
c1ccc(-c2nc(CNC3CCCN(c4cccnn4)C3)no2)cc1 (stereo not given)	> 100 µM	
CC(C)(C)c1nc(CNC2CCCN(c3cccnn3)C2)no1 (stereo not given)	39.6 µM and 34.1 µM	IC50 [7]: > 50.1 µM; IC50 [8]: > 50.1 µM
c1cnnc(N2CCCC(NCc3nc(-c4ccsc4)no3)C2)c1 (stereo not given)	> 100 µM	
c1cnnc(N2CCCC(NCc3nc(-c4cccs4)no3)C2)c1 (stereo not given)	> 100 µM	
c1ccc(-c2noc(CNC3CCCN(c4cccnn4)C3)n2)nc1 (stereo not given)	> 100 µM	IC50 [4]: 34.2 µM and 44.7 µM
COC(=O)c1ccc(CNC(=O)Nc2ccc(=O)n(C)c2)cc1	3.6 µM and 3.34 µM	IC50 [4]: 1.41 µM and 1.19 µM and 3.2 µM and 2.68 µM
Cn1cc(NC(=O)CCc2ccsc2)ccc1=O	13.3 µM and 13.9 µM	IC50 [4]: 12.7 µM and 13.3 µM
Cc1cc(=O)n(C)cc1NC(=O)Cc1ccc(C(F)(F)F)cc1	5.22 µM and 5.49 µM	IC50 [4]: 6.69 µM and 5.43 µM
Cc1cc(CNC2CCCN(c3cccnn3)C2)no1 (stereo not given)	> 100 µM	
c1cnnc(N2CCCC(NCc3nc(C4CC4)no3)C2)c1 (stereo not given)	52.8 µM and 48.2 µM	
COCCc1noc(CNC2CCCN(c3cccnn3)C2)n1 (stereo not given)	> 100 µM	
c1ccc(CNc2ncc(CN3CCCN4CCC[C@H]4C3)cn2)cc1	39.6 µM and 38.3 µM	
O=C(O)CNc1cc(-c2nccnc2N2CCCC2)c2cc[nH]c2n1	38.4 µM and 34.5 µM	

SMILES	IC50 [1]	further results
Nc1cc(-c2nccnc2N2CCCC2)c2cc[nH]c2n1	64.4 µM and 75.3 µM	
COc1cccn(CC(=O)N2CCCC3(CCOCC3)C2)c1=O	5.31 µM and 6.94 µM	IC50 [4]: > 100 µM
CC(C)(O)CCc1cccc(C(=O)NCc2nccs2)c1	> 100 µM	
CN(C)[C@H]1CCCCN(Cc2cnc(NCc3ccccc3)nc2)C1	> 100 µM	
CN1CCN2CCN(Cc3cnc(NCc4ccccc4)nc3)CC2C1 (stereo not given)	> 100 µM	
c1ccc(CNc2ncc(CN3CC[C@H]4CC[C@@H](C3)N4)cn2)cc1	> 100 µM	
CNc1cc(-c2ccc(COCCN)cc2)c2cc[nH]c2n1	38.8 µM and 97 µM	IC50 [2]: > 100 µM
O=C(NCc1cnn2cccnc12)c1cccc(CC2CCNCC2)c1	39.3 µM and 21.3 µM	IC50 [7]: 41.5 µM; IC50 [8]: 45.6 µM; IC50 [4]: 17.6 µM and 18.9 µM
CC(C)(O)CCc1cccc(C(=O)NCc2cnn3cccnc23)c1	> 100 µM	
CNC1CCN(C2CCN(c3ccc(-c4ccco4)cc3)CC2)CC1	65.7 µM and 43.8 µM	IC50 [7]: 24.6 µM; IC50 [8]: > 50.1 µM
CC(C)n1ccnc1CNC(=O)c1cccc(CCC(C)(C)O)c1	> 100 µM	
NCC1Cc2cccc(-c3nccc(N4CCC(O)CC4)n3)c2O1 (stereo not given)	> 100 µM	
NC1CCN(C2CCN(c3ccc(-c4ccco4)cc3)CC2)CC1	34.3 µM and 40.4 µM	IC50 [4]: 23 µM and 22.9 µM
OCCNc1cc(-c2nccnc2N2CCCC2)c2cc[nH]c2n1	32.6 µM and 31 µM	IC50 [4]: 16.2 µM and 14.9 µM
COc1cccn(CC(=O)N2CCCC3(CCCCC3)C2)c1=O	4.24 µM and 4.44 µM	IC50 [4]: 8.99 µM and 8.08 µM
COc1cccn(CC(=O)N2CCCC3(CCCO3)CC2)c1=O (stereo not given)	> 100 µM	IC50 [4]: > 100 µM
Cc1nc(C)n(CC2CCCN2Cc2nc(C)c3ccccc3n2)n1 (stereo not given)	30.1 µM and 20 µM	IC50 [4]: 31 µM and 34.3 µM
Cc1nc(C)n(CC2CCCN2Cc2nc3ccccc3c(=O)[nH]2)n1 (stereo not given)	> 100 µM	
Cc1nc(C)n(CC2CCCN2Cc2nc3ccccc3o2)n1 (stereo not given)	> 100 µM	
Cc1nc(C)n(CC2CCCN2Cc2nc3ccccc3s2)n1 (stereo not given)	> 100 µM	
Cc1nc(CN(C)CC2CCCN2c2cccnn2)oc1C (stereo not given)	> 100 µM	

SMILES	IC50 [1]	further results
CN(Cc1nc2ccccc2o1)CC1CCCN1c1cccnn1 (stereo not given)	> 100 µM	
CN(Cc1nc2ccccc2n1C)CC1CCCN1c1cccnn1 (stereo not given)	52.7 µM and 52.1 µM	
Cc1nc2ccccc2nc1CN(C)C1CCCN(c2cccnn2)C1 (stereo not given)	> 100 µM	
Cc1nc(C)n(CC2CCCN2Cc2nc(N)c3ccccc3n2)n1 (stereo not given)	> 100 µM	
Cc1nc(C)n(CC2CCCN2Cc2nc3ccccc3n2C)n1 (stereo not given)	> 100 µM	
Cc1nc(C)n(CC2CCCN2Cc2nc3ccccc3nc2C)n1 (stereo not given)	> 100 µM	
Cc1nc2ccccc2nc1CN(C)CC1CCCN1c1cccnn1 (stereo not given)	90.5 µM and 50.8 µM	
Cc1noc(C)c1CN(C)CC1CCCN1c1cccnn1 (stereo not given)	> 100 µM	
CN(Cc1nc(N)c2ccccc2n1)CC1CCCN1c1cccnn1 (stereo not given)	> 100 µM	
COCCN1CCC2(CCN(c3ncccn3)CC2)C1=O	> 100 µM	
CCN1CCC2(CCN(c3ncccn3)CC2)C1=O	> 100 µM	
Cc1cnc(N2CCC3(CCN(CC4CCCC4)C3=O)CC2)nc1	> 100 µM	
O=C1N(CC2CCCC2)CCC12CCN(c1ncc(F)cn1)CC2	> 100 µM	
Cn1nc(Cn2ccnc2)c2c1CN(c1ncccn1)C2	> 100 µM	
Cc1ccc(N2CCCC3(COCCN(c4ccccn4)C3)C2)nn1 (stereo not given)	> 100 µM	
Cc1ccc(N2CCCC3(COCCN(c4ncccn4)C3)C2)nn1 (stereo not given)	> 100 µM	
O=C1N(CC2CC2)CCC12CCN(c1ncccn1)CC2	> 100 µM	
Cn1nc(Cn2ccnc2)c2c1CN(c1nccs1)C2	88.3 µM and 86.2 µM	IC50 [4]: 20.5 µM and 14.5 µM
Cc1ccc(N2CCC3(CC2)COCCN(c2nccs2)C3)nn1	96.2 µM and 98.9 µM	IC50 [4]: 33.4 µM and 28.7 µM
Cc1ccc(N2CCCC3(COCCN(c4nccs4)C3)C2)nn1 (stereo not given)	> 100 µM	
